# Reference: US20100190846A1, “MICROBICIDAL AGENT AND MICROBICIDAL COMPOSITION” (priority 2006, published 2010)
# Legend:
# Assay in all cases: Agar dilution method microbicidal test
# Format in all cases: cell-based
# Bacillus cereus = tested on: Bacillus cereus; also: key: +: grew; −: did not grow
# Procedure: (§1) As microbicidal test method for trans-p-coumaric acid, 3-hydroxypyridine, p-hydroxybenzaldehyde and vanillin, the agar dilution method was employed.
# (§2) In agar dilution method, a solution in which a sample is dissolved is serially diluted several times, and each of the diluted sample solutions is mixed with agar medium to prepare plate agars having various sample concentration. Then bacteria is inoculated onto the plate agars. In cases where the sample has a microbicidal activity, the growth of the bacteria on the plates can be inhibited. The lowest concentration which can inhibit the growth of the bacteria is referred to as Minimum Inhibitory Concentration (MIC), thereby judging the degree of a microbicidal activity of the sample.
# (§3) First, 400 mg of sample was dissolved in 1 mL of DMSO to prepare 400 mg/mL sample solution. Then 0.5 mL of this 400 mg/mL sample solution was diluted 2-fold to prepare 200 mg/mL sample solution. In the same manner, sample solutions of 100 mg/mL, 50.0 mg/mL, and 25.0 mg/mL were prepared. In addition, 300 mg/mL sample solution was prepared. Thereafter, 0.2 mL of these sample solutions each was mixed with 19.8 mL of BHI (Brain Heart Infusion Agar, Becton Dickinson, MD) medium, thereby preparing agar plates having the sample concentration of 4.0 mg/mL, 3.0 mg/mL, 2.0 mg/mL, 1.0 mg/mL, 0.5 mg/mL, and 0.25 mg/mL in dishes. […] Sterilized water was used for dissolving catechin, because catechin was insoluble in DMSO.
# (§4) As test bacteria, 13 kinds of bacteria, i.e., Streptococcus pneumoniae, Streptococcus pyogenes, Enterococcus faecalis, Staphylococcus aureus, Escherichia coli, Salmonella sp., Yersinia enterocolitica, Vibrio parahaemolyticus, Pseudomonas aeruginosa, Bacillus cereus, Bacillus subtilis MB-32, Bacillus subtilis ATCC6633, and Candida sp., were used. These bacteria each was mixed with 2 mL of sterilized MHB^R liquid medium (Mueller Hinton Broth^R, Becton Dickinson, MD) to prepare bacterial suspension having turbidity 1 (bacterial concentration 10^8/mL). Previously, small test tubes were set into each cell of a grating and sterilized, and 1 mL of 13 bacterial suspensions were added into the small test tubes set in the grating, respectively. By using a microplanter (SAKUMA, model: MIT-P), 10 μL aliquot was collected from each test tube set in the grating and transferred to other test tube, and the transferred bacterial suspensions were diluted 100-fold (bacterial concentration 10^6/mL).
# (§5) By using the microplanter, 10 μL (bacterial number […]) of this bacterial suspension was inoculated onto the plates containing the sample solution of various concentrations. The plates were incubated for 18 hours in an incubator at 37° C., and then a microbicidal activity of each compound was assessed.
# [1] = tested on: Bacillus subtilis ATCC6633; conditions: Bacillus subtilis ATCC 6633; also: key: +: grew; −: did not grow
# Procedure: as §1, §2, §3, §4, §5
# Bacillus subtilis MB-32 = tested on: Bacillus subtilis MB-32; also: key: +: grew; −: did not grow
# Procedure: as §1, §2, §3, §4, §5
# Candida sp. = tested on: Candida sp. As to Growth on agar plate: key: +: grew; −: did not grow.
# Procedure: as §1, §2, §3, §4, §5
# Enterococcus faecalis = tested on: Enterococcus faecalis; also: key: +: grew; −: did not grow
# Procedure: as §1, §2, §3, §4, §5
# Escherichia coli = tested on: Escherichia coli; also: key: +: grew; −: did not grow
# Procedure: as §1, §2, §3, §4, §5
# Pseudomonas aeruginosa = tested on: Pseudomonas aeruginosa; as to Growth on agar plate: key: +: grew; −: did not grow
# Procedure: as §1, §2, §3, §4, §5
# Salmonella sp. = tested on: Salmonella sp. Also: key: +: grew; −: did not grow.
# Procedure: as §1, §2, §3, §4, §5
# Staphylococcus aureus = tested on: Staphylococcus aureus; as to Growth on agar plate: key: +: grew; −: did not grow
# Procedure: as §1, §2, §3, §4, §5
# Streptococcus pneumoniae = tested on: Streptococcus pneumoniae; as to Growth on agar plate: key: +: grew; −: did not grow
# Procedure: as §1, §2, §3, §4, §5
# Streptococcus pyogenes = tested on: Streptococcus pyogenes; as to Growth on agar plate: key: +: grew; −: did not grow
# Procedure: as §1, §2, §3, §4, §5
# Vibrio parahaemolyticus = tested on: Vibrio parahaemolyticus; as to Growth on agar plate: key: +: grew; −: did not grow
# Procedure: as §1, §2, §3, §4, §5
# Yersinia enterocolitica = tested on: Yersinia enterocolitica; as to Growth on agar plate: key: +: grew; −: did not grow
# Procedure: as §1, §2, §3, §4, §5
# [2] = BHI agar, 37° C., 18 hours, read-out: MIC
compound,measurement,setting,value
"Oc1cccnc1 [3-Hydroxypyridine, 3-hydroxypyridine]",Growth on agar plate,Bacillus cereus; 0.25 mg/mL,+
same,Growth on agar plate,Bacillus cereus; 0.5 mg/mL,+
same,Growth on agar plate,Bacillus cereus; 1.0 mg/mL,+
same,Growth on agar plate,Bacillus cereus; 2.0 mg/mL,+
same,Growth on agar plate,Bacillus cereus; 3.0 mg/mL,+
same,Growth on agar plate,Bacillus cereus; 4.0 mg/mL,+
same,Growth on agar plate,[1]; 0.25 mg/mL,+
same,Growth on agar plate,[1]; 0.5 mg/mL,+
same,Growth on agar plate,[1]; 1.0 mg/mL,+
same,Growth on agar plate,[1]; 2.0 mg/mL,+
same,Growth on agar plate,[1]; 3.0 mg/mL,+
same,Growth on agar plate,[1]; 4.0 mg/mL,+
same,Growth on agar plate,Bacillus subtilis MB-32; 0.25 mg/mL,+
same,Growth on agar plate,Bacillus subtilis MB-32; 0.5 mg/mL,+
same,Growth on agar plate,Bacillus subtilis MB-32; 1.0 mg/mL,+
same,Growth on agar plate,Bacillus subtilis MB-32; 2.0 mg/mL,+
same,Growth on agar plate,Bacillus subtilis MB-32; 3.0 mg/mL,+
same,Growth on agar plate,Bacillus subtilis MB-32; 4.0 mg/mL,+
same,activity (in words),Candida sp.,had an activity
same,Growth on agar plate,Candida sp.; 0.25 mg/mL,+
same,Growth on agar plate,Candida sp.; 0.5 mg/mL,+
same,Growth on agar plate,Candida sp.; 1.0 mg/mL,+
same,Growth on agar plate,Candida sp.; 2.0 mg/mL,+
same,Growth on agar plate,Candida sp.; 3.0 mg/mL,+
same,Growth on agar plate,Candida sp.; 4.0 mg/mL,−
same,MIC,Candida sp.; [2],4000 µg/mL
same,Growth on agar plate,Enterococcus faecalis; 0.25 mg/mL,+
same,Growth on agar plate,Enterococcus faecalis; 0.5 mg/mL,+
same,Growth on agar plate,Enterococcus faecalis; 1.0 mg/mL,+
same,Growth on agar plate,Enterococcus faecalis; 2.0 mg/mL,+
same,Growth on agar plate,Enterococcus faecalis; 3.0 mg/mL,+
same,Growth on agar plate,Enterococcus faecalis; 4.0 mg/mL,+
same,Growth on agar plate,Escherichia coli; 0.25 mg/mL,+
same,Growth on agar plate,Escherichia coli; 0.5 mg/mL,+
same,Growth on agar plate,Escherichia coli; 1.0 mg/mL,+
same,Growth on agar plate,Escherichia coli; 2.0 mg/mL,+
same,Growth on agar plate,Escherichia coli; 3.0 mg/mL,+
same,Growth on agar plate,Escherichia coli; 4.0 mg/mL,+
same,activity (in words),Pseudomonas aeruginosa,had an activity
same,Growth on agar plate,Pseudomonas aeruginosa; 0.25 mg/mL,+
same,Growth on agar plate,Pseudomonas aeruginosa; 0.5 mg/mL,+
same,Growth on agar plate,Pseudomonas aeruginosa; 1.0 mg/mL,+
same,Growth on agar plate,Pseudomonas aeruginosa; 2.0 mg/mL,+
same,Growth on agar plate,Pseudomonas aeruginosa; 3.0 mg/mL,+
same,Growth on agar plate,Pseudomonas aeruginosa; 4.0 mg/mL,−
same,MIC,Pseudomonas aeruginosa; [2],4000 µg/mL
same,Growth on agar plate,Salmonella sp.; 0.25 mg/mL,+
same,Growth on agar plate,Salmonella sp.; 0.5 mg/mL,+
same,Growth on agar plate,Salmonella sp.; 1.0 mg/mL,+
same,Growth on agar plate,Salmonella sp.; 2.0 mg/mL,+
same,Growth on agar plate,Salmonella sp.; 3.0 mg/mL,+
same,Growth on agar plate,Salmonella sp.; 4.0 mg/mL,+
same,activity (in words),Staphylococcus aureus,had an activity
same,Growth on agar plate,Staphylococcus aureus; 0.25 mg/mL,+
same,Growth on agar plate,Staphylococcus aureus; 0.5 mg/mL,+
same,Growth on agar plate,Staphylococcus aureus; 1.0 mg/mL,+
same,Growth on agar plate,Staphylococcus aureus; 2.0 mg/mL,+
same,Growth on agar plate,Staphylococcus aureus; 3.0 mg/mL,+
same,Growth on agar plate,Staphylococcus aureus; 4.0 mg/mL,−
same,MIC,Staphylococcus aureus; [2],4000 µg/mL
same,activity (in words),Streptococcus pneumoniae,had an activity
same,Growth on agar plate,Streptococcus pneumoniae; 0.25 mg/mL,+
same,Growth on agar plate,Streptococcus pneumoniae; 0.5 mg/mL,+
same,Growth on agar plate,Streptococcus pneumoniae; 1.0 mg/mL,+
same,Growth on agar plate,Streptococcus pneumoniae; 2.0 mg/mL,+
same,Growth on agar plate,Streptococcus pneumoniae; 3.0 mg/mL,+
same,Growth on agar plate,Streptococcus pneumoniae; 4.0 mg/mL,−
same,MIC,Streptococcus pneumoniae; [2],4000 µg/mL
same,activity (in words),Streptococcus pyogenes,had an activity
same,Growth on agar plate,Streptococcus pyogenes; 0.25 mg/mL,+
same,Growth on agar plate,Streptococcus pyogenes; 0.5 mg/mL,+
same,Growth on agar plate,Streptococcus pyogenes; 1.0 mg/mL,+
same,Growth on agar plate,Streptococcus pyogenes; 2.0 mg/mL,+
same,Growth on agar plate,Streptococcus pyogenes; 3.0 mg/mL,+
same,Growth on agar plate,Streptococcus pyogenes; 4.0 mg/mL,−
same,MIC,Streptococcus pyogenes; [2],4000 µg/mL
same,Growth on agar plate,Vibrio parahaemolyticus; 0.25 mg/mL,+
same,Growth on agar plate,Vibrio parahaemolyticus; 0.5 mg/mL,+
same,Growth on agar plate,Vibrio parahaemolyticus; 1.0 mg/mL,+
same,Growth on agar plate,Vibrio parahaemolyticus; 2.0 mg/mL,+
same,Growth on agar plate,Vibrio parahaemolyticus; 3.0 mg/mL,+
same,Growth on agar plate,Vibrio parahaemolyticus; 4.0 mg/mL,−
same,MIC,Vibrio parahaemolyticus; [2],4000 µg/mL
same,activity (in words),Yersinia enterocolitica,had an activity
same,Growth on agar plate,Yersinia enterocolitica; 0.25 mg/mL,+
same,Growth on agar plate,Yersinia enterocolitica; 0.5 mg/mL,+
same,Growth on agar plate,Yersinia enterocolitica; 1.0 mg/mL,+
same,Growth on agar plate,Yersinia enterocolitica; 2.0 mg/mL,+
same,Growth on agar plate,Yersinia enterocolitica; 3.0 mg/mL,+
same,Growth on agar plate,Yersinia enterocolitica; 4.0 mg/mL,−
same,MIC,Yersinia enterocolitica; [2],4000 µg/mL
